Results as given in the kinase profiling compilation of Christmann-Franck et al. (2016).

Experiments:
Assay in all cases: KINOMEscan competition binding
Conditions in all cases: compound 1.0 µM
[1] = system: ABL1 (human), P00519 [F317I]
ADCK4 (human) = ADCK4 (human) (UniProt Q96D53)
BMPR1A (human) = BMPR1A (human) (UniProt P36894)
CAMK1D (human) = CAMK1D (human) (UniProt Q8IU85)
CAMK4 (human) = CAMK4 (human) (UniProt Q16566)
CAMKK1 (human) = CAMKK1 (human) (UniProt Q8N5S9)
CDK15 (human) = CDK15 (human) (UniProt Q96Q40)
CDK3 (human) = CDK3 (human) (UniProt Q00526)
CDKL3 (human) = CDKL3 (human) (UniProt Q8IVW4)
CLK1 (human) = CLK1 (human) (UniProt P49759)
CLK3 (human) = CLK3 (human) (UniProt P49761)
CSNK1A1L (human) = CSNK1A1L (human) (UniProt Q8N752)
CSNK1G1 (human) = CSNK1G1 (human) (UniProt Q9HCP0)
[2] = system: EGFR (human), P00533 [L861Q]
ERBB2 (human) = ERBB2 (human) (UniProt P04626)
ERN1 (human) = ERN1 (human) (UniProt O75460)
FLT1 (human) = FLT1 (human) (UniProt P17948)
[3] = system: FLT3 (human), P36888 [D835Y]
ICK (human) = ICK (human) (UniProt Q9UPZ9)
INSR (human) = INSR (human) (UniProt P06213)
KDR (human) = KDR (human) (UniProt P35968)
LATS2 (human) = LATS2 (human) (UniProt Q9NRM7)
MAP2K6 (human) = MAP2K6 (human) (UniProt P52564)
MAP3K15 (human) = MAP3K15 (human) (UniProt Q6ZN16)
MAP3K7 (human) = MAP3K7 (human) (UniProt O43318)
MAPK1 (human) = MAPK1 (human) (UniProt P28482)
MAPK12 (human) = MAPK12 (human) (UniProt P53778)
MAPK13 (human) = MAPK13 (human) (UniProt O15264)
[4] = system: MET (human), P08581 [M1250T]
MST4 (human) = MST4 (human) (UniProt Q9P289)
MUSK (human) = MUSK (human) (UniProt O15146)
MYLK4 (human) = MYLK4 (human) (UniProt Q86YV6)
MYO3A (human) = MYO3A (human) (UniProt Q8NEV4)
NEK1 (human) = NEK1 (human) (UniProt Q96PY6)
NEK2 (human) = NEK2 (human) (UniProt P51955)
RPS6KA4 KD2 (human) = RPS6KA4 KD2 (human) (UniProt O75676)
RPS6KA6 KD2 (human) = RPS6KA6 KD2 (human) (UniProt Q9UK32)
TEC (human) = TEC (human) (UniProt P42680)
TSSK1B (human) = TSSK1B (human) (UniProt Q9BXA7)
TYRO3 (human) = TYRO3 (human) (UniProt Q06418)

Sequence of ADCK4 (human) (Q96D53 whole entry, looked up): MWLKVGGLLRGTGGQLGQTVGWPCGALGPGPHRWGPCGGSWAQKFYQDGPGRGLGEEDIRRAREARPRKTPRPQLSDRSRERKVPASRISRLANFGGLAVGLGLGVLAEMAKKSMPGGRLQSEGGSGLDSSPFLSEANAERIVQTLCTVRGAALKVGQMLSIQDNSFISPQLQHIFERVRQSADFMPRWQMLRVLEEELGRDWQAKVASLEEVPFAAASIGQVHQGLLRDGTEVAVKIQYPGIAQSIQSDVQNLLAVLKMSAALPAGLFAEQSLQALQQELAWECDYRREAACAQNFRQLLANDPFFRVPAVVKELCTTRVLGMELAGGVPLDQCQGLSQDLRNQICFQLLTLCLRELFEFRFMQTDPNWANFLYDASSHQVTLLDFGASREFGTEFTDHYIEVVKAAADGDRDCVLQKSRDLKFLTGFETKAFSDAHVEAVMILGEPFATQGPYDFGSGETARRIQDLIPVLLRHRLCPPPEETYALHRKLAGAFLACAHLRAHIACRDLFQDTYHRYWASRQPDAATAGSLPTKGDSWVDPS
Sequence of CLK1 (human) (P49759 whole entry, looked up): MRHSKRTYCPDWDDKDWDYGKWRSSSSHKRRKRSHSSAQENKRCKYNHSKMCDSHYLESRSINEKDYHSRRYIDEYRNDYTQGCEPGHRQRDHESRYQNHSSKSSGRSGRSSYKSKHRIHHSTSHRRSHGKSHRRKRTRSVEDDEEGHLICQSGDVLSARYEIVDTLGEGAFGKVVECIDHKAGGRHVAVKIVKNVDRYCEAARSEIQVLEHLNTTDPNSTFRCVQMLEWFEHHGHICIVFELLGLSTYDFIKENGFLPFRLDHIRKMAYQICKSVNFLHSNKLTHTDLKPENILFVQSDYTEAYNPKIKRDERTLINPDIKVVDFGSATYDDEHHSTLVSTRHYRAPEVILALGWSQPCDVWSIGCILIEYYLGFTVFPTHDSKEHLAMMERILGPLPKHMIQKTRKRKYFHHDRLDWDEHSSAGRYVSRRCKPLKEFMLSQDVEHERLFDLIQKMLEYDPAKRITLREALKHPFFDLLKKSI
Sequence of MAP3K7 (human) (O43318 whole entry, looked up): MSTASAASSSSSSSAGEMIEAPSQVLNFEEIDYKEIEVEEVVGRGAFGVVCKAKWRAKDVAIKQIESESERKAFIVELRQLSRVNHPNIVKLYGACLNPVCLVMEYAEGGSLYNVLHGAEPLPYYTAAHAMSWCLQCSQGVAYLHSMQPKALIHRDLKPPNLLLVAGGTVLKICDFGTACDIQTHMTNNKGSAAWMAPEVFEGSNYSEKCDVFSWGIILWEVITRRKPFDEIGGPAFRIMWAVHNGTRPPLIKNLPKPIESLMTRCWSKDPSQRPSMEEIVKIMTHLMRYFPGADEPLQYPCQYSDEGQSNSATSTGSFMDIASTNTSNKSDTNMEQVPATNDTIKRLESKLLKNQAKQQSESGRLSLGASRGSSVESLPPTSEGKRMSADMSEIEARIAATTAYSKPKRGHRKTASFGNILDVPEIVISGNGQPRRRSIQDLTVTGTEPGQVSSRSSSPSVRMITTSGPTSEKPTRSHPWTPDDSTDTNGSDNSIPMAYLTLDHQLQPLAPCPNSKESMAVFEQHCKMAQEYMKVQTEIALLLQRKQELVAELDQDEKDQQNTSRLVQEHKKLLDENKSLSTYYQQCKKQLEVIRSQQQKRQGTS
Sequence of MAP2K6 (human) (P52564 whole entry, looked up): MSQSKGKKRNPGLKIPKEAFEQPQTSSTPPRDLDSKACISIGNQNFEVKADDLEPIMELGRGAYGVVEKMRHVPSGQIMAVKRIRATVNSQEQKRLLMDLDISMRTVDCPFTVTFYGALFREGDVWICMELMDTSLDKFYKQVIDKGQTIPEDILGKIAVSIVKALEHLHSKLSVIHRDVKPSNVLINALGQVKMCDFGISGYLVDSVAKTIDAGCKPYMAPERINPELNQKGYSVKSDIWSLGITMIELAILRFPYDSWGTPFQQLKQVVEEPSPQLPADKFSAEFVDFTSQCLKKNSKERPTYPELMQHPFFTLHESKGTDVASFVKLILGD
Sequence of MET (human), P08581 [M1250T] (P08581 whole entry M1250T, looked up): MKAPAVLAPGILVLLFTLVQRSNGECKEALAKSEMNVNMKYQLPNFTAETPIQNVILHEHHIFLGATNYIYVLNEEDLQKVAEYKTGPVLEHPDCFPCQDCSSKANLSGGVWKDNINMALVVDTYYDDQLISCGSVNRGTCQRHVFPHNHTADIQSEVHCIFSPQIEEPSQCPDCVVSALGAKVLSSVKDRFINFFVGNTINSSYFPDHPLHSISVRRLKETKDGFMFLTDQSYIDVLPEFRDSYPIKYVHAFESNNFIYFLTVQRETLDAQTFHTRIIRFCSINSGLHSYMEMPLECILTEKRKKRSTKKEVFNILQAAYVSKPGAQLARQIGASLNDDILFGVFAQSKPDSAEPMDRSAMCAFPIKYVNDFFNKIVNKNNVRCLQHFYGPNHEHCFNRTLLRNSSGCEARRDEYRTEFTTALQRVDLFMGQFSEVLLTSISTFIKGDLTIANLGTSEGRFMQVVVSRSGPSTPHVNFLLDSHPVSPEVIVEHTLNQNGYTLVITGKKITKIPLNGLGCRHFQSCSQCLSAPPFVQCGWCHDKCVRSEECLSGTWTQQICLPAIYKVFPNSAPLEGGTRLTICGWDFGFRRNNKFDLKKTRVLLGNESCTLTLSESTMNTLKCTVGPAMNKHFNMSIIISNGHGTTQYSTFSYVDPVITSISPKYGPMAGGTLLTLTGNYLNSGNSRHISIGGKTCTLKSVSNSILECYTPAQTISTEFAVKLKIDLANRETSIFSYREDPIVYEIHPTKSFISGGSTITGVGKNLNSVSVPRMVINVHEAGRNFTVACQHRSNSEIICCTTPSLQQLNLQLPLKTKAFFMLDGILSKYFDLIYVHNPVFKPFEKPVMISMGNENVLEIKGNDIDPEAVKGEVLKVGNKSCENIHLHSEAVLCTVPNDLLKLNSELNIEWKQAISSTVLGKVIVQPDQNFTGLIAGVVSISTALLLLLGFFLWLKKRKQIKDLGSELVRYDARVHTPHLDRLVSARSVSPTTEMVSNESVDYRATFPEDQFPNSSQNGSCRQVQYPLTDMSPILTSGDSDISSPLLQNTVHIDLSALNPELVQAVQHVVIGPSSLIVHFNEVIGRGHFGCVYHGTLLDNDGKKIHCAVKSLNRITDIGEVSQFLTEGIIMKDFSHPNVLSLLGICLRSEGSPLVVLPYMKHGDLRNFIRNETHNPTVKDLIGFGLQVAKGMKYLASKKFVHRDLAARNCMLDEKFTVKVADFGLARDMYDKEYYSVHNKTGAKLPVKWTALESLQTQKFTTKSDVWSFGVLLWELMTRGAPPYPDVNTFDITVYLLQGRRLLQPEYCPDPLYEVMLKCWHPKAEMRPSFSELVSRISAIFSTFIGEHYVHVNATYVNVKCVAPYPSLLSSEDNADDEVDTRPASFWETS
Sequence of CAMK4 (human) (Q16566 whole entry, looked up): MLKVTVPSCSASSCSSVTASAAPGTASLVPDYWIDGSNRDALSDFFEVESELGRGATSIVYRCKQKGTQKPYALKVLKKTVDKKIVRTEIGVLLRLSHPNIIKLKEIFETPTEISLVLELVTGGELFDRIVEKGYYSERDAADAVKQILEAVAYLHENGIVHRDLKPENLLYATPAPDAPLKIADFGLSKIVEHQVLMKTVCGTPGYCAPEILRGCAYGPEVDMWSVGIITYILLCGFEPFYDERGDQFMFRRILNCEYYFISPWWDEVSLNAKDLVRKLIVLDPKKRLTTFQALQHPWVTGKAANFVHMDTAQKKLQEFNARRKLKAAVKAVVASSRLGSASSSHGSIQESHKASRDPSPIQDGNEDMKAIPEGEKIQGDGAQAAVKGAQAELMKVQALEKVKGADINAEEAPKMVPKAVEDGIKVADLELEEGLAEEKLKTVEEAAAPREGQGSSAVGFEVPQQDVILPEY
Sequence of CAMK1D (human) (Q8IU85 whole entry, looked up): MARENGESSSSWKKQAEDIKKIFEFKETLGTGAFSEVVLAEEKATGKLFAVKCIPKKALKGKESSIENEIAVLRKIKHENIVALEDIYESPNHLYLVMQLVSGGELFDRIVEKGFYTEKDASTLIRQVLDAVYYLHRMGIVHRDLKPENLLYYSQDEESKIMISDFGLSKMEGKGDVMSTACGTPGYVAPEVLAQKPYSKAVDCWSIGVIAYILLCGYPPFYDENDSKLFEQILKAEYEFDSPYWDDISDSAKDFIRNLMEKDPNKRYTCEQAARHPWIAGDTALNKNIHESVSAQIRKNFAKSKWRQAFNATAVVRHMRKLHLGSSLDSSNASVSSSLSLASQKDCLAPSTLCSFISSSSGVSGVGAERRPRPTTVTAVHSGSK
Sequence of ICK (human) (Q9UPZ9 whole entry, looked up): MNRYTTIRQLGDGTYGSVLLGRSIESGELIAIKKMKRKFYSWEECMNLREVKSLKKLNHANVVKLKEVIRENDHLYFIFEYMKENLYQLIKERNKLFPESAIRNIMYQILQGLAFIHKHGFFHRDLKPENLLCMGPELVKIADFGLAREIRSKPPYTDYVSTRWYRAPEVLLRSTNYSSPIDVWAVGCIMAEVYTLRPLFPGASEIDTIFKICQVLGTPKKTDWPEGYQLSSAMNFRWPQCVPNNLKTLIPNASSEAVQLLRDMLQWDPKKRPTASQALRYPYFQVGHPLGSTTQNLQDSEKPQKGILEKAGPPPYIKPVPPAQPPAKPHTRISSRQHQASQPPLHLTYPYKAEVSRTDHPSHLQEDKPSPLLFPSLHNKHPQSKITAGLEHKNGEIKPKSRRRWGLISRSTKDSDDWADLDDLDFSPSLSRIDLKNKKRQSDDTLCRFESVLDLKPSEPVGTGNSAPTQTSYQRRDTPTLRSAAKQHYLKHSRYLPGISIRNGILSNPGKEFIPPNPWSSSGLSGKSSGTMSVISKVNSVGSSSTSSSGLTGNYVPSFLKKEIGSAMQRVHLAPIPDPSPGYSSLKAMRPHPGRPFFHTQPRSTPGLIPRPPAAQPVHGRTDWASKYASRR

Nc1cc(C(F)(F)F)c(-c2cc(N3CCOCC3)nc(N3CCOCC3)n2)cn1
inhibition of binding [1]: 41% | inhibition of binding (ADCK4 (human)): 0% | inhibition of binding (BMPR1A (human)): 0% | inhibition of binding (CAMK1D (human)): 0% | inhibition of binding (CAMK4 (human)): 50% | inhibition of binding (CAMKK1 (human)): 0% | inhibition of binding (CDK15 (human)): 0% | inhibition of binding (CDK3 (human)): 0% | inhibition of binding (CDKL3 (human)): 0% | inhibition of binding (CLK1 (human)): 58% | inhibition of binding (CLK3 (human)): 29% | inhibition of binding (CSNK1A1L (human)): 0% | inhibition of binding (CSNK1G1 (human)): 25% | inhibition of binding [2]: 0% | inhibition of binding (ERBB2 (human)): 24% | inhibition of binding (ERN1 (human)): 5% | inhibition of binding (FLT1 (human)): 0% | inhibition of binding [3]: 12% | inhibition of binding (ICK (human)): 0% | inhibition of binding (INSR (human)): 30% | inhibition of binding (KDR (human)): 0% | inhibition of binding (LATS2 (human)): 19% | inhibition of binding (MAP2K6 (human)): 0% | inhibition of binding (MAP3K15 (human)): 0% | inhibition of binding (MAP3K7 (human)): 5% | inhibition of binding (MAPK1 (human)): 0% | inhibition of binding (MAPK12 (human)): 17% | inhibition of binding (MAPK13 (human)): 0% | inhibition of binding [4]: 20% | inhibition of binding (MST4 (human)): 0% | inhibition of binding (MUSK (human)): 0% | inhibition of binding (MYLK4 (human)): 0% | inhibition of binding (MYO3A (human)): 7% | inhibition of binding (NEK1 (human)): 15% | inhibition of binding (NEK2 (human)): 0% | inhibition of binding (RPS6KA4 KD2 (human)): 0% | inhibition of binding (RPS6KA6 KD2 (human)): 18% | inhibition of binding (TEC (human)): 3% | inhibition of binding (TSSK1B (human)): 5% | inhibition of binding (TYRO3 (human)): 0%
